The data set concerns MB49 (bladder) tumor. Nature of the data set: MB49 tumor-bearing C57BL/6 mice. Type of data set: in vivo. From the text:
FIGS. 3A-3F: Blocking expression of EZH2 mediated by anti-CTLA-4 using CPI-1205 increases the effectiveness of anti-CTLA-4 therapy. Tumor growth (FIG. 3A), survival (FIG. 3B) and percentages of intra-tumoral CD4^+CD25^+FoxP3^+ regulatory T cells, CD4^+ICOS^+T-bet^+ and CD8^+IFNγ^+ cells (FIG. 3C) in MB49 tumor-bearing mice treated with vehicle, anti CTLA-4, CPI-1205, or the combination. Tumor growth (FIG. 3D) and percentages of CD4^+IFNγ^+ cells and CD8^+TNFα^+ cells in the lymph nodes (LN) (FIG. 3E) of MB49 tumor-bearing Ezh2^fl/+ and FoxP3^CreEzh2^fl/fl mice treated with anti-CTLA-4 on days 7 and 9. (FIG. 3F) Tumor growth and survival of MB49 tumor-bearing Rag-1^−/− mice treated with vehicle or CPI-1205. Data are representative of three independent experiments (n=10 in each group; one-way ANOVA was used to determine significance between the groups. **p<0.01).
It was evaluated whether the combination of anti-CTLA-4 with CPI-1205 increases the effectiveness of anti-CTLA-4. MB49 (bladder) and B 16-F10 (melanoma) tumor-bearing C57BL/6 mice were treated with anti-CTLA-4 and the EZH2 inhibitor CPI-1205 as monotherapies and in combination.
Cell lines and tumor model. Murine bladder cancer cell line (MB49) were provided by Dr. A. Kamat (at The University of Texas MD Anderson Cancer Center) and murine melanoma cell line B16-F10 was obtained from Dr. I. Fidler (The University of Texas MD Anderson Cancer Center). 2×10^5 (MB49) or 2×10^5 (B16-F10) cells were injected subcutaneously or intradermally respectively, in the flanks of C57BL/6 mice (5 or 10 mice per group). […]
Tissue processing and flow cytometry. […] Staining with intracellular anti-Foxp3 (eBioscience, FJK-16 s), […] (eBioscience, PC61.5), antiKi-67 (eBioscience, SolA15), antiIFN-γ (BioLegend, XMG1.2), anti-TNF-α (BioLegend, MP6-XT22), and anti-EZH2 (Cell Signaling Technology, D2C9) were analyzed by flow cytometry according to the manufacturers’ instructions. Flow cytometry data were acquired on BD LSR II (BD Biosciences) and analyzed using FlowJo software (Tree Star, Ashland, Oreg.).

Each structure is given as a SMILES string.

Take `COc1cc(C)[nH]c(=O)c1CNC(=O)c1c(C)n([C@H](C)C2CCN(CC(F)(F)F)CC2)c2ccccc12` [CPI-1205, N-[(4-methoxy-6-methyl-2-oxo-1H-pyridin-3-yl)methyl]-2-methyl-1-[(1R)-1-[1-(2,2,2-trifluoroethyl)piperidin-4-yl]ethyl]indole-3-carboxamide]: the “proportion of tumor-infiltrating cytotoxic T cells” value (in vivo in the murine model (model not named)) was “enhanced”. For the same compound, for the setting “model not named”, the B cell abundance result was “no difference” and the myeloid cells result is given as “effected certain subsets”.

Values taken from patent US20210260051A1, “COMBINATION OF EZH2 INHIBITOR AND CHECKPOINT THERAPY FOR THE TREATMENT OF CANCER” (Board of Regents, The University of Texas System, priority 2018, published 2021).
